{"source": "patent US10478404B2", "about": "“Materials, methods and devices for altering cell reactivity” (The Arizona Board of Regents on behalf of The University of …, priority 2014, dated 2019)", "key": {"platelets [1]": {"test_system": "platelets", "experiment": "Scanning electron microscopy (SEM) of fixed DMSO-treated platelets", "assay_type": "cell-based, Human", "details": "5% and 10% DMSO", "description": "(§1) Light transmission aggregometry (LTA) was performed to detect platelet desensitization using arachidonic acid, ADP, collagen, epinephrine, and ristocetin. Platelets were fixed and visualized at the varying DMSO treatments under scanning electron microscopy (SEM). […] DMSO has no effect on ristocetin-induced platelet aggregation."}, "[2]": {"test_system": "gel-filtered platelets (GFP)", "experiment": "Platelet activity state (PAS) assay of gel-filtered platelets under constant shear (cone-plate viscometer)", "assay_type": "cell-based, Human", "description": "(§2) Human blood was collected from healthy volunteers in citrated buffers. Platelet rich plasma (PRP) and gel-filtered platelets (GFP) were isolated as previously described (Girdhar, et al., PLOS One, 7(3):e32463 (2012)) then treated with percentages of DMSO (v/v) ranging from 0.95%-60%. Platelet activity state (PAS) assay of GFP sheared at 30 dyne/cm^2 via con-plate viscometer and light transmission aggregometry (LTA) of PRP and GFP induced by ADP and collagen were performed.\nIn some experiments, varying percentages of DMSO were added to platelets, which were then subjected to defined sheer."}, "platelets [3]": {"test_system": "platelets", "experiment": "Hyper-shear exposure via platelet hammer device (PAS)", "assay_type": "cell-based, Human", "details": "0.95% (v/v) DMSO pre-incubation; shear 100-1000 dynes/cm^2; FIG. 1B", "description": "To further extend the above observation, platelets were pre-incubated with DMSO, at 0.95% (v/v), and then subjected to much higher levels of shear via a platelet hammer device, i.e. shear from 100-1000 dynes/cm^2. […] These levels correlate with the levels experienced in VADs and other high shear MCS devices."}, "[4]": {"test_system": "Platelet rich plasma (PRP)", "experiment": "Light transmission aggregometry (LTA) with chemical agonists", "assay_type": "cell-based, Human", "description": "as §2, §1\nTo examine whether membrane modulation impacted biochemical as well as shear-mediated platelet activation the following study was performed. Platelet rich plasma (PRP) was pre-incubated with varying concentrations of DMSO. PRP was then exposed to a variety of chemical agonists (ADP, Col, EpPi, Arac. Acid, or none (control))."}, "GFP": {"test_system": "GFP", "experiment": "Shear-mediated platelet activation with actin stabilizing/depolymerization drugs", "assay_type": "cell-based, human", "details": "70 dyn shearing force; compared to control cells with 0.1% DMSO; FIG. 2B", "description": "Platelets were collected from human volunteers and PRP obtained as described above. Platelet-activation was determined (biochemical vs. shear mediated) was determined within the context of modulation of intracellular microfilament action, as measured by the effect on actin was determined. Actin is a globular multi-functional protein that forms microfilaments. It is found in almost all eukaryotic cells where it may be present at concentrations of over 100 μM. An actin protein's mass is roughly 42-kDa and it is the monomeric subunit of two types of filaments in cells: microfilaments, one of the three major components of the cytoskeleton, and thin filaments, part of the contractile apparatus in muscle cells. It can be present as either a free monomer called G-actin (globular) or as part of a linear polymer microfilament called F-actin (filamentous).\nWhole blood aggregation was determined in the presence of ADP in cells treated with cytochalasin B (FIG. 2A). Cystochalasin B inhibits both the rate of actin polymerization and the interaction of actin filaments in solution. Maclean-Fletcher, Cell, 20(2):329-41 (1980). The effect of actin stabilizing/depolymerization drugs (Jasplakinolide and cystochalasin B) in shear-mediated platelet activation was measured in GFP. […]"}, "platelets [5]": {"test_system": "platelets", "experiment": "Shear-induced platelet activation (PAS) with membrane modulators", "assay_type": "cell-based, human", "description": "Platelets were obtained as previously described and the effect of […] on biochemical or shear-induced (70 dyn shearing force) platelet activation was determined. Membrane modulation was effected using hydrophobic molecules such as Docosahexaenoic acid (DHA) and Eicosapentaenoic acid (EPA), the structures of which are shown below.\nShear-mediated platelet activation was also measured in the presence of DHA, EPA and wild salmon oil (FIG. 4B-C).\nShear-mediated and biochemical mediated platelet activation was also measured in the presence of the amphipathic molecules, cholesterol and lecithin. Cholesterol adds firmness and integrity to the plasma membrane and prevents it from becoming overly fluid i.e., cholesterol helps the membrane maintain its fluidity. In the studies including cholesterol, cholesterol-treated cells were compared with cells treated with 0.1% DMSO."}}, "data": [{"compound": "C[S+](C)[O-]", "note": "[DMSO, dimethysulfoxide]", "values": [{"measurement": "filopodia (SEM of platelets)", "setting": "platelets [1]", "result": "significant reduction"}, {"measurement": "protection of platelets from shear-induced activation in comparison to control (PAS assay)", "setting": "[2]; 5% DMSO, 5 min of 30 dyne/cm^2", "result": "up to 90%"}, {"measurement": "DMSO percentage giving the same level of protection at longer shear exposure", "setting": "[2]; 10 min of 30 dyne/cm^2", "result": 10, "unit": "%"}, {"measurement": "most effective DMSO percentage in protecting platelets from activation by constant shear stress and aggregation by chemical agonists", "setting": "[2]; DMSO range tested 0.95%-60%", "result": "5 % (v/v)"}, {"measurement": "DMSO concentration with best protective effect", "setting": "[2]; shear 30-70 dynes/cm^2, FIG. 1A", "result": "1-5%"}, {"measurement": "tolerance of hyper shear", "setting": "platelets [3]", "result": "able to tolerate much higher levels of sheer"}, {"measurement": "ristocetin-induced platelet aggregation", "setting": "[4]", "result": "no effect"}, {"measurement": "collagen-induced PRP aggregation", "setting": "[4]; 0.95% to 10% DMSO", "result": "limited effect"}, {"measurement": "epinephrine-induced PRP aggregation", "setting": "[4]; 0.95% to 10% DMSO", "result": "limited effect"}, {"measurement": "arachidonic acid-induced aggregation", "setting": "[4]; 5% DMSO", "result": "inhibition"}, {"measurement": "maximal aggregation (LTA)", "setting": "[4]; 5% DMSO-pretreated platelets", "result": "lower maximal aggregation"}, {"measurement": "platelet aggregation rate (LTA)", "setting": "[4]; 5% DMSO-pretreated platelets", "result": "slower platelet aggregation rate"}, {"measurement": "ADP-induced aggregation", "setting": "[4]; 10% DMSO", "result": "inhibition"}, {"measurement": "agonist-mediated platelet activation", "setting": "[4]; PRP pre-incubated with varying DMSO, ADP, Col, Epi, Arac. Acid, inhibitory peak at higher DMSO concentrations than for shear, FIG. 1C", "result": "reduction of agonist-mediated activation"}]}, {"compound": "C/C1=C\\[C@H](C)C[C@H](C)OC(=O)C[C@H](c2ccc(O)cc2)NC(=O)[C@@H](Cc2c(Br)[nH]c3ccccc23)N(C)C(=O)[C@H](C)NC(=O)[C@@H](C)C1", "note": "[Jasplakinolide]", "values": [{"measurement": "shear-mediated platelet activation over time", "setting": "GFP", "result": "less activation over time"}]}, {"compound": "CC(C)CCC[C@@H](C)[C@H]1CC[C@H]2[C@@H]3CC=C4C[C@@H](O)CC[C@]4(C)[C@H]3CC[C@]12C", "note": "[cholesterol]", "values": [{"measurement": "shear-induced platelet activation", "setting": "platelets [5]; 20 μM and 200 μM cholesterol, 30 dyn and 70 dyn, compared with 0.1% DMSO, FIG. 4D-E", "result": "reduces shear-induced platelet activation"}]}, {"compound": "lecithin", "values": [{"measurement": "platelet sensitivity to shear stress", "setting": "platelets [5]; Example 4 data", "result": "increase platelet sensitivity to shear stress"}, {"measurement": "shear-induced platelet activation as measured by PAS", "setting": "platelets [5]; lecithin 25 ug/ml, 30 dyn, GFP, compared to controls, FIG. 4G", "result": "increases"}]}]}
